We go through 1 compound from patent US20070135383A1, “Phospholipase inhibitors, including multi-valent phospholipase inhibitors, and use thereof, including as lumen-localized phospholipase inhibitors” (priority 2005, published 2007).

One data set has as its target T1, Porcine PLA2 IB (Sus scrofa, UniProt P00592).
T1 construct: purchased
The data set is described as follows: Continuous fluorimetric PLA2 assay, PPyrPG vesicles (Example 1B-1). In kind it is biochemical. As to conditions: restated in Example 10, refers to Example 1B-1; read-out: IC-50 value. From the text:
A continuous fluorimetric assay for PLA2 activity described in the literature was used to determine IC (Leslie, C C and Gelb, M H (2004) Methods in Molecular Biology “Assaying phospholipase A2 activity”, 284: 229-242, Singer, A G, et al. (2002) Journal of Biological Chemistry “Interfacial kinetic and binding properties of the complete set of human and mouse groups I, II, V, X, and XII secreted phospholipases A2”, 277: 48535-48549, Bezzine, S, et al. (2000) Journal of Biological Chemistry “Exogenously added human group X secreted phospholipase A(2) but not the group IB, IIA, and V enzymes efficiently release arachidonic acid from adherent mammalian cells”, 275: 3179-3191) and references therein.
Generally, this assay used a phosphatidylglycerol (or phosphatidylmethanol) substrate with a pyrene fluorophore on the terminal end of the sn-2 fatty acyl chain. […] The effect of a given inhibitor and inhibitor concentration on any given phospholipase can be determined. […]
In this example, the procedure was performed as follows: • 1. […] The fluorescence was read using an excitation of 342 nm and an emission of 395 nm.
In this example, the IC50 was calculated using the BioDataFit 1.02 (Four Parameter Model) software package. […]

The test system of data set [1] is wild-type C57BL/6 mice on high fat/high sucrose diet. The data set is described as follows: In-vivo evaluation on high fat/high sucrose diabetogenic diet, 10 weeks (Example 10). Set-up: species or system mouse. As to conditions: for fasting glucose levels: low dose 25 mg/kg/day. The protocol:
ILY-4001 (FIG. 7) was evaluated as a PLA2 IB inhibitor in a set of experiments using wild-type mice and genetically deficient PLA2 (−/−) mice (also referred to herein as PLA2 knock-out (KO) mice). In these experiments, wild-type and PLA2 (−/−) mice were maintained on a high fat/high sucrose diet, details of which are described below.
Briefly, four groups were set up, each having six mice. Three of the groups included six wild-type PLA2 (+/+) mice in each group (eighteen mice total), and one of the groups included six genetically deficient PLA2 (−/−) mice. One of the wild-type groups was used as a wild-type control group, and was not treated with ILY-4001. The other two wild-type groups were treated with ILY-4001—one group at a lower dose (indicated as “L” in Table 1) of 25 mg/kg/day, and the other at a higher dose (indicated as “H” in Table 1) of 90 mg/kg/day. The group comprising the PLA2 (−/−) mice was used as a positive control group.
The experimental protocol used in this study was as follows. The four groups of mice, including wild type and isogenic PLA2 (−/−) C57BL/J mice were acclimated for three days on a low fat/low carbohydrate diet. After the three day acclimation phase, the animals were fasted overnight and serum samples taken to establish baseline plasma cholesterol, triglyceride, and glucose levels, along with baseline body weight. The mice in each of the treatment groups were then fed a high fat/high sucrose diabetogenic diet (Research Diets D12331). 1000 g of the high fat/high sucrose D12331 diet was composed of casein (228 g), DL-methionine (2 g), maltodextrin 10 (170 g), sucrose (175 g), soybean oil (25 g), hydrogenated coconut oil (333.5 g), mineral mix S10001 (40 g), sodium bicarbonate (10.5 g), potassium citrate (4 g), vitamin mix V10001 (10 g), and choline bitartrate (2 g). This diet was supplemented with ILY-4001 treatments such that the average daily dose of the compound ingested by a 25 g mouse was: 0 mg/kg/day (wild-type control group and PLA2 (−/−) control group); 25 mg/kg/day (low-dose wild-type treatment group), or 90 mg/kg/day (high-dose wild-type treatment group). The animals were maintained on the high fat/high sucrose diet, with the designated ILY-4001 supplementation, for a period of ten weeks.
Body weight measurements were taken for all animals in all treatment and control groups at the beginning of the treatment period and at 4 weeks and 10 weeks after initiation of the study. (See Example 10A). Blood draws were also taken at the beginning of the treatment period (baseline) and at 4 weeks and 10 weeks after initiation of the study, in order to determine fasting glucose (See Example 10B). Cholesterol and triglyceride levels were determined from blood draws taken at the beginning of the treatment (baseline) and at ten weeks. (See […]).

Data set [2] in a line: In-vitro Caco-2 permeability study (Example 1B-2). Conditions: human.
The nature of another data set: Stability at low pH. In kind it is physicochemical.
Setting [3] is: low and high doses (25 and 90 mg/kg/day), 10 weeks.

T1 sequence (P00592 23-146): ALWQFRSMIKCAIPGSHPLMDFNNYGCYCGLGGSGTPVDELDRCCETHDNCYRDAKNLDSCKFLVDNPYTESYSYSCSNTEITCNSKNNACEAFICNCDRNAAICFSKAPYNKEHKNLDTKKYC

A word on the Papp A→B: it is the apparent permeability from the apical to the basolateral side of a cell layer. Read a low Papp A→B as slow passage. On to `Cc1c(C(=O)C(N)=O)c2c(OCC(=O)O)cccc2n1Cc1ccccc1-c1ccccc1` [ILY-4001, 2-(3-(2-amino-2-oxoacetyl)-1-(biphenyl-2-ylmethyl)-2-methyl-1H-indol-4-yloxy)acetic acid], for which the IC50 at Porcine PLA2 IB was around 62 nM. The body weight gain result in data set [1] (25 mg/kg/d and 90 mg/kg/d in diet, week 4 and week 10, vs wild-type control) was “significantly reduced body weight gains”. Further, in data set [1] (setting [3]), the “plasma levels of cholesterol” value is “substantially reduced”. Moreover, the “plasma levels of triglycerides” value in data set [1] (setting [3]) was “substantially reduced”. Moreover, the fasting glucose levels entry in data set [1] (week four) is given as “moderately beneficial effect”; in data set [1] (week ten) it was “beneficial effect was not observed”. The compound further came in with an apical-to-basolateral permeability (Papp A→B) at 6 hr, 50 ug/ml in data set [2] of around 0.166 ×10⁻⁶ cm/s. In addition, the “stability at low pH” value in “Stability at low pH” was “stable”.
